Literature values as cited in US20150031774A1, “RASAGILINE ORALLY DISINTEGRATING COMPOSITIONS” (priority 2004, published 2015).

Molecular target: 9-form of the enzyme monoamine oxidase (Homo sapiens, UniProt P27338)
Settings: prior-art patents cited in background

9-form of the enzyme monoamine oxidase, sequence (P27338 whole entry): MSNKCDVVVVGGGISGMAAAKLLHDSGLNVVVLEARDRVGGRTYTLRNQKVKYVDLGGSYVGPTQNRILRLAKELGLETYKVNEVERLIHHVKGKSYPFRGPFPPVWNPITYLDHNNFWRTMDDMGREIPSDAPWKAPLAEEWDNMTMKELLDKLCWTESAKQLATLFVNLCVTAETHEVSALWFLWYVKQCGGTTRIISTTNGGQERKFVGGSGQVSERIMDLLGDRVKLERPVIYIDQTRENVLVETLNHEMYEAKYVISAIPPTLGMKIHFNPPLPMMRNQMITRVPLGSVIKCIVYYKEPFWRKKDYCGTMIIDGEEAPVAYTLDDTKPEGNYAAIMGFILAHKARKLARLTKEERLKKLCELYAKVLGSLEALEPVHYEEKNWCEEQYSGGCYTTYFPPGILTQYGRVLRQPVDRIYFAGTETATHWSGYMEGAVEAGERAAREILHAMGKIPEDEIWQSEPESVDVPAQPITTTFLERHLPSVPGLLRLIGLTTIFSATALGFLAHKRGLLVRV

selectivity of monoamine oxidase inhibition: selective inhibitor
Structure (SMILES): C#CCN[C@@H]1CCc2ccccc21 [Rasagiline, R(+)-propargyl-1-aminoindan]
